Data published in patent publication US11970708B2, “Gene therapy vector with minimizing recombination, recombinant retrovirus comprising the vector, and pharmaceutical composition for preventing or treating cancer comprising the recombinant retrovirus” (ARTICURE INC., priority 2020, dated 2024).

Key:
[1] = tested on: brain tumor cell line U87MG; test: Recombination type analysis by genomic DNA PCR after serial virus infection (passages); format: cell-based, human; settings: spRRVe-yCD/sRRVgp-TK virus
Protocol: After 3 days of initial infection, the cultured supernatant was taken and re-infected to new U87MG, and the infected U87MG cell line was recovered and genomic DNA was isolated.
The replicating-retrovirus vector for gene therapy is highly likely to cause recombination because the size of genomic RNA is increased by the introduced foreign gene and non-homologous sequences are added. Therefore, in order to construct an efficient and stable replicating-retrovirus vector for gene therapy, it is very important to confirm the presence and degree of recombination at the development stage.
Specifically, polymerase chain reaction was performed using the primers listed in Table 1 below capable of specifically amplifying the env vector. […] 100 ng of genomic DNA, 1X reaction buffer, 0.25 mM dNTP, 0.2 pmol forward primer, 0.2 pmol reverse primer, and 0.2 unit Taq polymerase were added to a PCR reaction tube, and sterilized distilled water was added to make the final volume of 20 ? . Then, After PCR was performed under the conditions shown in Table 1 below, the amplified DNA was loaded on a 1% agarose gel to confirm the PCR amplification product, thereby confirming the infectivity of the virus and whether the recombination occurred. […]

[2] = tested on: U87MG cells; test: Western blotting of thymidine kinase (TK) and yeast cytosine deaminase (yCD) protein in infected cells; format: cell-based, human
Protocol: After 3 days of initial infection, p1(passage 1)˜p10 cells were harvested and resuspended in 100 ? of T-PER tissue extraction agent (PIERCE, 78510)+1× proteinase inhibitor. Thereafter, the cells were broken by freezing-thawing three times, and the cytoplasmic supernatant was recovered by centrifugation at 13,000 rpm for 10 minutes. After quantifying the protein amount using BCA, 20 μg of cell lysate was taken and mixed with SDS sample loading dye to 1%. After reacting for 5 minutes in a 100° C. heat block, the reaction mixture was moved to ice and reacted for 2 minutes. Then, the reactant was loaded on 10% (TK) or 13.5% (yCD) SDS-PAGE gel, followed by electrophoresis. Upon completion of the electrophoresis, the protein was transferred to a NC (nitrocellulose) membrane at 90 V for 2 hours, and then put into a blocking solution (5% skim milk in 1X TBS-T), followed by reaction at room temperature for 1 hour. […] Then, the membrane was washed 4 times with 1× TBS-T at room temperature for 10 minutes, reacted in an ECL (enhanced chemiluminescence, Bio-rad Cat No. 170-5062) solution, and then analyzed in a chemiluminescence imaging system (ChemiDoc, Biorad CA). […]

[3] = tested on: U-87MG cells; test: Cell death of virus-infected cells upon prodrug (GCV, 5-FC) treatment, optical microscope; set-up: species or system human; settings: MuLV env-based vectors, FIG. 16
[4] = tested on: U-87MG cells; test: as above; set-up: species or system human; settings: GaLV env-based vectors; prodrugs GCV 30 μg/ and 1 mM 5-FC; FIG. 12
Protocol: Specifically, the spRRVe-TK/sRRVgp-sEF1α-hopt-yCD virus was co-transfected into the 293T cell line using PLUS reagent (Invitrogen) and lipofectamine (Invitrogen). After 2 days, the supernatant of the virus was recovered, and U-87MG cells passaged in a 6-well plate at the density of 1.5×10^5 cells/well the previous day were infected with the virus and polybran at a concentration of 8 μg/ ? for 8 hours. Five days after infection (postinfection 5d), the cell supernatant was taken and re-infected to U-87MG cells passaged in a 6-well plate at the density of 1.5×10^5 cells/well the previous day (p1), and then sequentially infected up to p4 in the same way. Cells at each stage of infection were treated with trypsin-EDTA to make single cells, and passaged in a 12-well plate at the density of 1.5×10^5 cells/well, and from the next day after the passage, 30 μg/ ? of GCV and 1 mM 5-FC were treated for […], respectively, to confirm cell death.
Specifically, the virus containing spRRVe-F4-hopt-yCD/sRRVgp-TK, spRRVe-F4-hopt-yCD/sRRVgp-F1-TK, spRRVe-F4-hopt-yCD/sRRVgp-F2-TK, spRRVe-F4-hopt-yCD/sRRVgp-F3-TK and spRRVe-F4-hopt-yCD/sRRVgp-F4-TK was co-transfected into the 293T cell line using PLUS reagent (Invitrogen) and lipofectamine (Invitrogen). […]

**Q.** For “spRRVe-yCD: GaLV env vector with full-length MCMV promoter and yCD gene (SEQ. ID. NO: 25)”, which “virus proliferation and infection (PCR products detected)” value ([1]; day 3 of initial infection and passages 1 to 3) is on record?
**A.** Its value is “virus proliferation and infection progressed”.

**Q.** What about the “passage from which PCR products smaller than the expected amplification product were detected (recombination)” value ([1]; full-length MCMV promoter, 2E7 gc, GaLV 1624F/MFGSacIR primers, up to passage 3) of the same substance?
**A.** The value was 2 passage.

**Q.** What does the source list for “sRRVe-TK: MuLV env vector, 646 bp MCMV promoter, TK gene (SEQ. ID. NO: 33)”?
**A.** thymidine kinase (TK) protein expression ([2]; MuLV env-based vectors, FIG. 15): continuously expressed; cell death upon prodrug treatment [3]: cell death is induced

**Q.** “spRRVe-TK: GaLV env vector, 646 bp MCMV promoter, TK gene (SEQ. ID. NO: 27)” was tested. Which “cell death upon prodrug treatment” value [4] did it give?
**A.** The value was “cell death is induced”.

**Q.** What about the “thymidine kinase (TK) protein expression” value ([2]; GaLV env-based vectors with sRRVgp-sEF1α-hopt-yCD, 0.1 MOI, p1-p10, FIG. 10) of the same substance?
**A.** The value was “continuously expressed”.
